Laboratory results taken from patent US4349526A, “Process for the production of hydrogen peroxide” (Degussa Aktiengesellschaft, priority 1980, dated 1982).

Tests used:
[1] = Oxidation breakdown on gassing with dry air at 140° C., 2.5 hours; format: physicochemical; conditions: 36 liters dry air per hour, 150 ml urea, decrease of urea based on starting content
Description: In a gassing apparatus equipped with gassing frit and intensive condenser in each case gassing was carried out with 150 ml of the ureas set forth in Table 4 using 36 liters of dry air per hour at a temperature of 140° C. for 2.5 hours. During the test half hourly samples were drawn off and the oxidative breakdown followed by means of capillary gas chromatography. As a measure for the oxidative breakdown the decrease of the amount of urea in percentage based on the starting urea content is used.

Density = format: physicochemical
[2] = Oxidation resistance of hydroquinone solvents, gassing with dry air at 140° C., 50 hours; format: physicochemical; conditions: 36 liters dry air per hour, 150 ml solvent; gas chromatography
Description: The hydroquinone solvent content in percent based on the starting hydroquinone content was determined gas chromatographically and set forth in Table 5.

Viscosity = format: physicochemical
[3] = Mutual solubility of urea and water; format: physicochemical
[4] = in words; German AS; cited from earlier work

Oxidation Breakdown After 2.5 hours [1] [%]	Hydroquinone Solvent Content (%) after 50 hours Gassing at 140° C. [2] [%]	Compound	other results
0	100.0	CCCCN(CCCC)C(=O)N(C)c1ccccc1 [N,N-dibutyl-N'-methyl-N'-phenylurea]	Density (50° C.) (Density; Table 2): 0.9499 g/mL; Density (50° C.) (Density; Table 3): 0.950 g/mL; Viscosity (50° C.) (Viscosity): 9.2 cP; Solubility in Water at 20° C. [3]: 0.01%
9.2	86.6	CCCCN(CCCC)C(=O)N(CC)CC [N,N-diethyl-N',N'-dibutylurea, reference compound]	–
0	–	CCN(CC)C(=O)N(C)c1ccccc1 [N,N-diethyl-N'-methyl-N'-phenylurea]	Density (50° C.) (Density; Table 2): 0.9941 g/mL
2.6	–	CC(C)N(C(=O)N(C)C)C(C)C [N,N-dimethyl-N'-di-i-propylurea, reference compound]	–
0	100.0	CCCN(CCC)C(=O)N(C)c1ccccc1 [N,N-dipropyl-N'-methyl-N'-phenylurea]	Density (50° C.) (Density; Table 2): 0.9690 g/mL
–	16.6	CC(C)CC(O)CC(C)C [di-i-butylcarbinol]	–

More lines, now with the values behind:

Compound	Oxidation Breakdown After 2.5 hours [1] [%]	Hydroquinone Solvent Content (%) after 50 hours Gassing at 140° C. [2] [%]	other results
CN(C(=O)N1CCOCC1)c1ccccc1 [N'-methyl-N'-phenylcarbamoyl-N-morpholine]	0	–	–
CCC(C)N(C)C(=O)N(C)c1ccccc1 (stereo not drawn) [N,N'-dimethyl-N-s-butyl-N'-phenylurea]	0	–	–
CN(C)C(=O)N(C)c1ccccc1 [N,N,N'-trimethyl-N'-phenylurea]	0	–	Density (50° C.) (Density; Table 2): 1.0392 g/mL
CC(C)N(C(=O)N(C)c1ccccc1)C(C)C [N,N-di-i-propyl-N'-methyl-N'-phenylurea]	0	–	–
CC(C)(C)c1ccccc1 [tert. butyl benzene]	–	–	oxidation resistance [4]: oxidation resistant
CCCCC(CC)COP(=O)(OCC(CC)CCCC)OCC(CC)CCCC (stereo not drawn) [tris-2-ethylhexyl phosphate]	–	88.3	–
N,N-di-i-propyl-N'-phenylurea	–	100.0	–
methylcyclohexyl acetate	–	77.4	–
